Source: PMC7911516, “Investigation of the Factors Responsible for the Poor Oral Bioavailability of Acacetin in Rats: Physicochemical and Biopharmaceutical Aspects” (Pharmaceutics, 2021)
In brackets after ≈: the same amount, converted by molar mass. Read-outs that look alike come from different tables or passages of the source.

Columns and labels:
[1] = Equilibrium solubility in water, pH 7.4 phosphate buffer, SGF and SIF; assay type: physicochemical
Method: Simulated gastric fluid (SGF) consisted of 0.2% (w/v) sodium chloride, 0.32% (w/v) pepsin, and 0.7% (v/v) HCl (final pH = 1.2). Simulated intestinal fluid (SIF) was prepared by dissolving 3 mM sodium taurocholate and 0.1% (w/v) pancreatin in phosphate buffer (final pH = 7.0). The solubility of acacetin was measured by adding excessive amounts of acacetin into glass vials containing 1.5 mL of water, pH 7.4 phosphate buffer, SGF, and SIF. The mixtures were allowed to reach equilibrium in a shaking incubator (FINEPCR, Gyeonggi-do, South Korea) at 500 rpm at 37 °C for 48 h. The samples were centrifuged at 16,000× g for 5 min, and the supernatant was passed through a 0.20-μm syringe filter to remove excess acacetin. Further, the concentration of acacetin in the filtrate was determined using the LC-MS/MS method. The distribution coefficients of acacetin in water (log P) and pH 7.4 phosphate buffer (log D7.4) were determined using an octanol–water system at 25 ± 0.5 °C. The two phases were pre-saturated with each other by vigorous vortex-mixing for 15 min and further stabilized overnight for phase separation. A certain amount of acacetin (less than its solubility) was dissolved in the pre-saturated octanol, vortex mixed with the same volume of pre-saturated water for 1 h, shaken for 24 h, and further centrifuged at 16,000× g for 30 min. Finally, the acacetin concentrations in the octanol and water layers were determined using the LC-MS/MS method. The membrane permeability of acacetin and reference compounds (verapamil as a reference for high permeability and ranitidine as a reference for low permeability) was assessed by parallel artificial membrane permeability assay (PAMPA). The PAMPA was conducted using a commercially available PAMPA kit (GIT PAMPA Double Sink; pION Inc., Massachusetts, MA, USA) according to the manufacturer’s protocol. The permeability was calculated using pION PAMPA Explorer ver. 3.8 software (pION Inc., Massachusetts, MA, USA).

[2] = Intravenous pharmacokinetic study in rats; assay type: in vivo
Method: The rats were fasted overnight before the experiment and anesthetized using an intramuscular injection of zoletil at 20 mg/kg. The femoral artery and vein were cannulated with a polyethylene tube (Clay Adams, Parsippany, NJ, USA). Acacetin (dissolved in a vehicle composed of DMSO, ethanol, and PEG400 (10:5:85, v/v/v)) was administered intravenously (10 mg/kg) or orally (100 mg/kg) to rats. Approximately 250 μL of blood was collected via the femoral artery at 0, 2, 5, 15, 30, 45, 60, 120, and 180 min after intravenous administration and at 0, 2, 5, 15, 30, 45, 60, 90, 120, and 180 min after oral administration. The cannula was flushed with heparin (20 IU/mL in saline) at each time point to prevent blood clotting. Following centrifugation of the blood sample at 8000× g and 4 °C for 2 min, 120 μL of plasma was obtained. Urine was collected at 1-h intervals in an ice-cold container over 24 h. After urine collection at 24 h, each rat was sacrificed by cervical dislocation; the entire GI tract (including its contents and feces) was excised, transferred into a beaker containing 100 mL methanol, and cut into small pieces using scissors. After manual stirring with a glass rod for 1 min, a 50-μL aliquot of the supernatant was collected. The plasma, urine (Ae24h), and GI tract (GI24h) samples were stored at −80 °C until further LC-MS/MS analysis. A noncompartmental analysis (WinNonlin ver. 3.1; Certara USA Inc., Princeton, NJ, USA) was performed to determine the following pharmacokinetic parameters: the AUCinf, area under plasma concentration versus time curve from time zero to the last sampling time (AUClast), t1/2, total body clearance (CL), apparent volume of distribution at steady state (Vss), and absolute oral bioavailability (F). The Cmax and time to reach Cmax (Tmax) were directly obtained from the plasma concentration versus time data.

- solubility at 48 h ([1]; aqueous buffer, thermodynamic from solid, pH 7.4 phosphate buffer, 37 °C, 48 h, read-out: Solubility, pH 7.4 phosphate buffer): 0.0121 ± 0.0011 µg/mL (≈ 0.0426 µM)
- solubility at 48 h ([1]; fassgf or other biorelevant, thermodynamic from solid, SIF pH 7.0, 37 °C, 48 h, read-out: Solubility, SIF): 0.119 ± 0.008 µg/mL (≈ 0.419 µM)
- solubility at 48 h ([1]; pH 7 phosphate buffer, SGF and SIF, pH 7, in abstract, read-out: Solubility in pH 7 phosphate buffer and simulated GI fluids): ≤ 0.119 µg/mL
- solubility at 48 h ([1]; simulated gastric fluid, thermodynamic from solid, SGF pH 1.2, 37 °C, 48 h, read-out: Solubility, SGF): 0.0593 ± 0.0071 µg/mL (≈ 0.209 µM)
- solubility at 48 h ([1]; thermodynamic from solid, water, 37 °C, 48 h, read-out: Solubility, Water): 0.0401 ± 0.0073 µg/mL (≈ 0.141 µM)
- solubility at 48 h ([1]; water, pH 7.4 phosphate buffer, SGF and SIF, pH 7.4, upper bound over all four media, read-out: Solubility in water, pH 7.4 buffer, SGF, and SIF): ≤ 0.119 µg/mL
- Urinary and GI (including biliary) excretion of unchanged acacetin ([2]; IV 10 mg/kg): 1.5–12.8 % of dose
- GI24h ([2]; IV 10 mg/kg, GI tract at 24 h): 6.66 ± 5.34 % of dose
- Ae24h ([2]; IV 10 mg/kg, urine 24 h): 2.50 ± 1.15 % of dose
- clearance ([2]; Sprague-Dawley, rat, blood (plasma CL divided by RB), IV 10 mg/kg, read-out: Total blood clearance (CL/RB)): 191 ± 34 mL/min/kg
- clearance ([2]; rat, IV 10 mg/kg, total plasma clearance, read-out: CL): 199 ± 36 mL/min/kg
- AUC(0-inf) ([2]; rat, plasma, IV 10 mg/kg): 855 ng·h/mL
- half-life ([2]; rat, plasma, IV 10 mg/kg): 40.3 ± 7.2 min
- Vd ([2]; rat, plasma, IV 10 mg/kg, read-out: Vss): 2.22 ± 0.507 L/kg
- Hepatic extraction ratio ([2]; speculated from blood clearance vs hepatic blood flow): ~1
Compound: COc1ccc(-c2cc(=O)c3c(O)cc(O)cc3o2)cc1 [acacetin, Acacetin]
